Literature values, collected in patent US20260151310A1, “COSMETIC FOR HAIR GROWTH, COSMETIC RAW MATERIAL AND COSMETIC, AND METHOD FOR PRODUCING THE SAME” (Teika Pharmaceutical Co., Ltd., priority 2021, published 2026).

Tested on: hair density and hair thickness
Details: compared with positive control minoxidil; Non Patent Literature 1

[O-][n+]1ccccc1[S-].[O-][n+]1ccccc1[S-].[Zn+2] [pyrithione zinc]
Effect on hair density and hair thickness: less than half the effect of a positive control minoxidil
